Laboratory results reported in patent US20240383874A1, “BENZENE RING DERIVATIVE, AND COMPOSITION AND PHARMACEUTICAL USE THEREOF” (Xizang Haisco Pharmaceutical Co., Ltd., priority 2020, published 2024).

Target: T1, AR splice variant 7 (AR-V7) (Homo sapiens, UniProt P10275)
T1 construct: host or cells: 22RV1 prostate cancer cells
T1 sequence (P10275 1-644 isoform P10275-3): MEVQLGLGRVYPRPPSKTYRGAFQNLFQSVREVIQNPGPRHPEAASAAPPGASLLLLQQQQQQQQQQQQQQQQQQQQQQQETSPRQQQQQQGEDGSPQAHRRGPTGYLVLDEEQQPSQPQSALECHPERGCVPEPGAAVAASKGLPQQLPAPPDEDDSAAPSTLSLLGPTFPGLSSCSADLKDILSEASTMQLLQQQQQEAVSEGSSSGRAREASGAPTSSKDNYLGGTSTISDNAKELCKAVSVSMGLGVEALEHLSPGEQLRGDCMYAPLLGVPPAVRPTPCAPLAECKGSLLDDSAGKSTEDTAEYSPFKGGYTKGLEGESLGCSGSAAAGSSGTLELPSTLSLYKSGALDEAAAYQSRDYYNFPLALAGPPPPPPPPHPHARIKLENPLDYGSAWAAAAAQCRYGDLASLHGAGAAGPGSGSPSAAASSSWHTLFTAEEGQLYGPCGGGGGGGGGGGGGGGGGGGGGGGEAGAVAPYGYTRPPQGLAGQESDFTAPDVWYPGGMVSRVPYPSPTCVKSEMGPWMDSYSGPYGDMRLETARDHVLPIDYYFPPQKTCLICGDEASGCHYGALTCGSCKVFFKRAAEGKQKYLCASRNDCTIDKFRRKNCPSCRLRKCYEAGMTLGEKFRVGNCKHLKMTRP
Test: Degradation experiment on AR splice variant 7 (AR-V7) in 22RV1 cells
Type: cell-based
Settings: 24 h, degradation rate 50% relative to vehicle control
Procedure: Prostate cancer cells 22RV1 were purchased from ATCC, the cell medium was 1640+10% FBS, and the cells were cultured in an incubator at 37° C. under 5% CO2. On day 1, the cells in an exponential phase were collected. With a 1% css-FBS phenol red-free medium, the cell suspension was adjusted to a corresponding concentration and plated into a 6-well plate at 1 mL/well and 300000 cells/well. The next day, a 1% css-FBS phenol-free medium containing the compound to be tested was added, a 1% css-FBS phenol-free medium containing 0.2% DMSO was added to one well as DMSO vehicle control, and the 6-well plate was cultured in an incubator at 37° C. under 5% CO2. After 24 h, the cells were digested with pancreatin and collected into a 1.5 mL centrifuge tube. […] The supernatant protein samples were collected, and protein quantification was performed by a BCA method. AR-V7 was detected using fully automatic protein expression quantitative analysis, which involved diluting the protein to be tested to 2 mg/mL. […] The prepared reagents were successively added to an assay plate according to instructions of the kit and detected on an instrument. Western blot band processing was performed using “Compass for SW”, a fully automatic protein expression quantitative analysis software, in which western blot bands were automatically simulated based on signal values. […]

DC50: 3.71 µM
Compound: COc1c(Cl)cc(C(C)(C)c2ccc(OCc3ccnc(N4CCC(CN5CCC(C6CCN(c7ccc(C8CCC(=O)NC8=O)cc7)CC6)CC5)CC4)n3)cc2)cc1C#N (stereo not shown) [Compound 119, 3-chloro-5-(2-(4-((2-(4-((1′-(4-(2,6-dioxopiperidin-3-yl)phenyl)-[4,4′-bipiperidin]-1-yl)methyl)piperidin-1-yl)pyrimidin-4-yl)methoxy)phenyl)propan-2-yl)-2-methoxybenzonitrile]
